The source of these data is patent US5958923A, “Use of thiazole and thiadiazole compounds” (BASF Aktiengesellschaft, priority 1994, dated 1999).

One assay has as its target T1, D2 receptor (Bos taurus, UniProt P20288).
T1 construct: Nucleus caudatus was removed from bovine brain; from tissue; host or cells: bovine nucleus caudatus membranes
The assay is described as follows: D2 binding assay (3H-spiperone, D2low, bovine nucleus caudatus membranes). To be noted: 0.2 nmol/l 3H-spiperone (D2low), 25° C., 60 min. As to the method:
a) Nucleus caudatus (bovine)
Nucleus caudatus was removed from bovine brain and washed with ice-cold 0.32 M sucrose solution. After determination of the weight, the material was comminuted and homogenized in 5-10 volumes of sucrose solution using a Potter-Evehjem [sic] homogenizer (500 rpm). The homogenate was centrifuged at 3,000×g for 15 minutes (4° C.), and the resulting supernatant was subjected to another 15-minute centrifugation at 40,000×g. The residue was then washed twice, by resuspension and centrifugation, with 50 mM tris-HCl, pH 7.4. The membranes were stored in liquid nitrogen until used.
a) ^3 H-Spiperone (D2low)
Nucleus caudatus membranes were taken up in incubation buffer (mM: tris-HCl 50, NaCl 120, KCl 5, MgCl2 1, CaCl2 2, pH 7.4). Various mixtures, each of 1 ml, were prepared:
Total binding: 400 μg of membranes+0.2 nmol/l ^3 H-spiperone (Du Pont de Nemours, NET-565).
Non-specific binding: as mixtures for total binding+10 μM (+)-butaclamol.
Test substance: as mixtures for total binding+increasing concentrations of test substance.
After incubation at 25° C. for 60 minutes, the mixtures were filtered through GF/B glass fibre filters (Whatman, England) on a Skatron cell collector (from Zinsser, Frankfurt), and the filters were washed with ice-cold 50 mM tris-HCl buffer, pH 7.4. The radioactivity collected on the filters was quantified using a Packard 2200 CA liquid scintillation counter.
The Ki values were determined by non-linear regression analysis using the LIGAND program or by conversion of the IC50 values using the formula of Cheng and Prusoff.

In another assay the target is T2, human D3 receptor (Homo sapiens, UniProt P35462).
T2 construct: (Natick, Mass., USA); host or cells: CCL 1.3 mouse fibroblasts
T2 sequence (P35462 whole entry): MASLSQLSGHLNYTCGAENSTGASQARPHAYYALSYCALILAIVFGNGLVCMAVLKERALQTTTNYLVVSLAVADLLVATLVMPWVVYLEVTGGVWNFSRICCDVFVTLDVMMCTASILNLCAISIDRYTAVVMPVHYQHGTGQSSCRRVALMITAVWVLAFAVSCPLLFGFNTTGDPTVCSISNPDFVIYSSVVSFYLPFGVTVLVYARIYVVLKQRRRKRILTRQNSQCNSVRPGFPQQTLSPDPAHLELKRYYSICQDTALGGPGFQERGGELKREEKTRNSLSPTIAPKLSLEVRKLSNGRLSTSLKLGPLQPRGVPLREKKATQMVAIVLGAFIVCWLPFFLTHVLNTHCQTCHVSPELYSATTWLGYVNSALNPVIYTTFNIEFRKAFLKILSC
The assay is described as follows: D3 binding assay (125I-iodosulpiride, cloned human D3 receptor-expressing CCL 1.3 mouse fibroblasts). The following applies: for Ki: 0.1 nM 125 iodosulpiride, 60 min, 30° C., read-out: Receptor binding D3 125I-sulpiride Ki; for Selectivity Ki D2 /Ki D3: ratio D2 (3H-spiperone) to D3 (125I-sulpiride). How it is done: Cloned human D3 receptor-expressing CCL 1.3 mouse fibroblasts obtained from Res. Biochemicals Internat. One Strathmore Rd., Natick, Mass. 01760-2418 USA, were used for the binding studies.
The D3 -expressing cells were grown in RPMI-1640 containing 10% fetal calf serum (GIBCO No. 041-32400 N); 100 U/ml penicillin and 0.2% streptomycin (GIBCO BRL, Gaithersburg, Md., USA). After 48 h, the cells were washed with PBS and incubated with 0.05% trypsin-containing PBS for 5 min. Neutralization with medium was then carried out, and the cells were collected by centrifugation at 300×g. To lyze the cells, the pellet was briefly washed with lysis buffer (5 mM tris-HCl, pH 7.4, with 10% glycerol) and then incubated in a concentration of 10^7 cells/ml of lysis buffer at 4° C. for 30 min. The cells were centrifuged at 200×g for 10 min and the pellet was stored in liquid nitrogen.
For the D3 receptor-binding assay, the membranes were suspended in incubation buffer (50 mM tris-HCl, pH 7.4, with 120 mM NaCl, 5 mM KCl, 2 mM CaCl2, 2mM MgCl2, 10 μM quinolinol, 0.1% ascorbic acid and 0.1% BSA) in a concentration of about 10^6 cells/250 μl of assay mixture and incubated at 30° C. with 0.1 nM ^125 iodosulpiride in the presence and absence of test substance. The non-specific binding was determined using 10^-6 M spiperone.
After 60 min, the free and the bound radioligand was separated by filtration through GF/B glass fiber filters (Whatman, England) on a Skatron cell collector (Skatron, Lier, Norway), and the filters were washed with ice-cold tris-HCl buffer, pH 7.4. The radioactivity collected on the filters was quantified using a Packard 2200 CA liquid scintillation counter.
The Ki values were determined by non-linear regression analysis using the LIGAND program.

T1 sequence (P20288 whole entry): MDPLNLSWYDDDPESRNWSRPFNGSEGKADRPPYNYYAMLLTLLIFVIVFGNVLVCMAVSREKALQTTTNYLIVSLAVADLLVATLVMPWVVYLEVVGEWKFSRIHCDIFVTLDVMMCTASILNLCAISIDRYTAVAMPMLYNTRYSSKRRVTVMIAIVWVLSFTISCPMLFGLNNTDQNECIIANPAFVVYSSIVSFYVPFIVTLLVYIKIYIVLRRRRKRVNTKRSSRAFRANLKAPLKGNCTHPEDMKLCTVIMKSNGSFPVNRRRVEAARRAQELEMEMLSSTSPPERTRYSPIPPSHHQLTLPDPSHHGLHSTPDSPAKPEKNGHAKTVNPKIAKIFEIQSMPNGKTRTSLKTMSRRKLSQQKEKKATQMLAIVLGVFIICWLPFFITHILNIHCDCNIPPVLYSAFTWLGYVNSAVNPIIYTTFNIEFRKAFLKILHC

`Nc1nnc(CCCCCCN2CCN(c3cccc(C(F)(F)F)c3)CC2)s1` [Example 2] registered a Ki at D2 receptor of 65 nM. At human D3 receptor, the Ki turned out to be 1.4 nM and the “Selectivity Ki D2 /Ki D3” value was determined as 46.

In the case of `Nc1nnc(SCCCN2CCN(c3cc(Cl)cc(Cl)c3)CC2)s1` [Example 13], the Ki at D2 receptor was found to be 25 nM; on human D3 receptor, 0.6 nM. On human D3 receptor, the “Selectivity Ki D2 /Ki D3” value is 41.

At D2 receptor, `CC(CSc1nnc(N)s1)CN1CCN(c2cccc(C(F)(F)F)c2)CC1` (stereo not drawn) [Example 16] registered a Ki of 402 nM. Moreover, at human D3 receptor, the inhibition constant (Ki) is 10.9 nM and the “Selectivity Ki D2 /Ki D3” value is reported as 36.

The molecule `Nc1nnc(SCCCN2CCN(c3cccc(C(F)(F)F)n3)CC2)s1` [Example 23] yielded a Ki at D2 receptor of 200 nM. Moreover, at human D3 receptor, the Ki is 6.3 nM and the “Selectivity Ki D2 /Ki D3” value amounted to 31.

Molecule `CC(C)c1cccc(N2CCN(CCCCCCCSc3nnc(N)s3)CC2)c1` [Example 49] registered a Ki at D2 receptor of 560 nM. Moreover, on human D3 receptor, the Ki was found to be 6.5 nM and the “Selectivity Ki D2 /Ki D3” value turned out to be 86.

Take `N#Cc1cccc(N2CCN(CCCCCCCCSc3nnc(N)s3)CC2)c1` [Example 51]: the affinity on D2 receptor, expressed as Ki, was 500 nM. For the same molecule, on human D3 receptor, the Ki came to 8.3 nM and the “Selectivity Ki D2 /Ki D3” value was 62.

`Nc1nnc(SCC=CCN2CCN(c3cccc(C(F)(F)F)n3)CC2)s1` [Example 53] displayed a Ki at D2 receptor of 145 nM. Also, on human D3 receptor, the Ki stood at 2.95 nM and the “Selectivity Ki D2 /Ki D3” value stood at 50.

Consider `Cc1cc(N2CCN(CCCSc3nnc(N)s3)CC2)nc(-n2cccc2)n1` [Example 56], for which the Ki on D2 receptor was 3500 nM; on human D3 receptor, 27 nM. Also, on human D3 receptor, the “Selectivity Ki D2 /Ki D3” value is listed as 70.

As for `CC(C)(C)c1cc(N2CCN(CCCSc3nnc(N)s3)CC2)nc(C(C)(C)C)n1` [Example 58], the Ki at D2 receptor was determined as 225 nM; on human D3 receptor, 1.7 nM. Further, the “Selectivity Ki D2 /Ki D3” value at human D3 receptor amounted to 132.
